Assays:
[1] = test system: arterial pressure and nictitating membrane (norepinephrine); test: Influence on peripheral noradrenergic phenomena (norepinephrine, anaesthetized cat); conditions: cat, i.v.
electrocardiogram = test: Effect on the electrocardiogram; assay type: in vivo; conditions: amantadine: 5 mg/kg injected, dog
[2] = test system: cholinergic effects of tremorine; test: Anti-tremorine test in vivo; design: species or system mice (male, OF1 strain)
Protocol: When injected into mice, tremorine produces peripheral effects i.e. weeping, sweating, salivation and diarrhoea and central effects i.e. tremor and akinesia. Such effects are due to an increase in the amount of intracerebral acetylcholine and serotonine.
[…] Thirty minutes later a dose of 10 mg/kg of tremorine was injected by intraperitoneal route and, at different times after this injection, note was taken of the cholinergic effects on each animal in accordance with the following scale:

[3] = SPERBER et al., J. Amer. Chem. Soc., 71, 3352 (1949); cited from earlier work
[4] = SPERBER et al., J. Amer. Chem. Soc., 71, 3352 (1949); cited from earlier work; remark: listed apart in the source
in vivo = conditions: mouse, po
[5] = test system: neuroleptic-induced catatonia; test: Inhibition of neuroleptic (prochlorperazine)-induced catatonia (preventive); assay type: in vivo, rat (male, OFA strain)
Protocol: The blocking of dopaminergic receptors by neuroleptics in the extra-pyramidal system induces catatonia in the rat. Catatonia is differentiated from sedative properties by means of the test used hereabove for reserpine-induced catatonia. The same system of scoring was also employed in the present case.
An oral dose of the compound to be studied in aqueous solution was administered to batches of 10 male rats of the OFA strain weighing about 150 to 200 g.
Three hours after the injection of this latter compound, catatonia was measured. An identical trial was also carried out with control animals which received prochlorperazine but none of the compounds under study.
The scoring system used was that given hereabove for Table I.

monoamine oxidase = test: Inhibitory effect on monoamine oxidase
[6] = test system: reserpine-induced catatonia; test: Inhibition of reserpine-induced catatonia (preventive, oral compound 30 min before reserpine); assay type: in vivo, rat (male, OFA strain); conditions: for index of reserpine-induced catatonia (numerator of ratio): 0.031 m mol/kg oral, hydrochloride form
Protocol: After sufficient doses of reserpine have been administered to the rat, a series of symptoms occur, more particularly ptosis, catatonia and a drop in central temperature. These symptoms are caused by the depletion of the intragranular reserve pool of biogenetic amines at the synaptic terminals.
An oral dose of the compound to be studied in aqueous solution was administered to batches of 10 male rats of the OFA strain weighing about 150 to 200 g. Thirty minutes later a dose of 5 mg/kg of reserpine was given by intraperitoneal route. Three hours after the injection of reserpine, the animals were suspended by the four paws to a horizontally stretched wire fixed at 15 cm from the ground. The catatonia animals were those which maintained the position so given for at least 30 seconds. […] The maximum score was therefore 10 per batch. An identical trial was undertaken with control animals which received reserpine but none of the compounds being studied.

Tremor-inducing action = conditions: 0.031 m mol/kg oral, 30 min, hydrochloride form; for number of animals presenting tremors (denominator of ratio): batches of 10 rats

| SMILES | selectivity ratio (in vivo) | Inhibition of the neuroleptic-induced catatonia ([5]; 6 mg/kg oral) | Inhibition of reserpine-induced catatonia ([6]; 6 mg/kg oral) | index of reserpine-induced catatonia (numerator of ratio) [6] | number of animals presenting tremors (denominator of ratio) (Tremor-inducing action) | ratio of index of reserpine-induced catatonia inhibition to number of animals presenting tremors (Tremor-inducing action) | other results |
| --- | --- | --- | --- | --- | --- | --- | --- |
| NC12CC3CC(CC(C3)C1)C2 [Amantadine, 1-amino-adamantane, reference compound] | – | – | – | – | – | – | effect on the nictitating membrane (in words) [1]: stimulates the contractile reactions of the nictitating membrane but does not potentiate the effects of the electric stimulation; potentiation of norepinephrine / peripheral adrenergic effects (in words) [1]: potentiates exogenous norepinephrine from 1 mg/kg; potentiation of norepinephrine / peripheral adrenergic effects (in words) ([1]; listed as amantadine): potentiates the peripheral adrenergic effects; effect on the electrocardiogram (in words) (electrocardiogram): provokes cardiac arrhythmia due to ventricular extrasystoles; antitremorine properties (in words) ([2]; 5 mg/kg Compound 1, 40 mg/kg amantadine): devoid of antitremorine properties; central cholinergic effects (normal and provoked tremor) ([2]; 40 mg/kg oral, identical to the peripheral score of 4): Identical results |
| CCCCC(N)(CCCC)CCCC [Compound 12, 1,1-Di-n-butyl-n-pentylamine] | 25 | – | – | – | – | – | toxicity (in words) [3]: more toxic than the corresponding trialkylethylamines; spasmolytic activity (in words) [4]: less spasmolytic |
| CCCC(CCC)(CCC)NC [Compound 27, N-Methyl-1,1-di-n-propyl-n-butylamine] | 16.5 | 3 (represents 70 to 80% inhibition of catatonia in comparison with the controls) | 4 (represents 100% inhibition of catatonia in comparison with the controls) | 4 (represents 100% inhibition of catatonia in comparison with the controls) | 4 | 1 | inhibitory effects on the monoamine oxidase (in words) (monoamine oxidase): practically devoid of inhibitory effects |
| CCCC(CCC)(NC)C(C)C [Compound 30, N-Methyl-1-n-propyl-1-isopropyl-n-butylamine] | > 25 | 3 (represents 70 to 80% inhibition of catatonia in comparison with the controls) | 4 (represents 100% inhibition of catatonia in comparison with the controls) | 4 (represents 100% inhibition of catatonia in comparison with the controls) | 3 | 1.33 | – |
| C=CCC(CCC)(CCC)NC [Compound 32, N-Methyl-1-n-propyl-1-allyl-n-butylamine] | – | – | – | 3 (represents 70 to 80% inhibition of catatonia in comparison with the controls) | 0 | 3/0 | Inhibition of the neuroleptic-induced catatonia ([5]; 5 mg/kg oral): 2 (represents 50% inhibition of catatonia in comparison with the controls); Inhibition of reserpine-induced catatonia ([6]; 5 mg/kg oral): 2 (represents 50% inhibition of catatonia in comparison with the controls) |
| C#CCNC(CCC)(CCC)CCC [Compound 36, N-Propargyl-1,1-di-n-propyl-n-butylamine] | > 25 | 4 (represents 100% inhibition of catatonia in comparison with the controls) | 1 (represents 20 to 30% inhibition of catatonia in comparison with the controls) | 3 (represents 70 to 80% inhibition of catatonia in comparison with the controls) | 5 | 0.60 | – |
| CCCC(CCC)(CCC)NCCO [Compound 43, N-(2-Hydroxyethyl)-1,1-di-n-propyl-n-butylamine] | 23 | – | – | – | – | – | Inhibition of the neuroleptic-induced catatonia ([5]; 6.5 mg/kg oral): 1 (represents 20 to 30% inhibition of catatonia in comparison with the controls); Inhibition of reserpine-induced catatonia ([6]; 13 mg/kg oral): 3 (represents 70 to 80% inhibition of catatonia in comparison with the controls) |
| CCCC(CCC)(CCC)N1CCOCC1 [Compound 46, N,N-(3-Oxapentamethylene)-1,1-di-n-propyl-n-butylamine] | 31 | – | – | – | – | – | Inhibition of the neuroleptic-induced catatonia ([5]; 8 mg/kg oral): 2 (represents 50% inhibition of catatonia in comparison with the controls); Inhibition of reserpine-induced catatonia ([6]; 8 mg/kg oral): 1 (represents 20 to 30% inhibition of catatonia in comparison with the controls) |
